Data: the NIST ThermoML archive (doi:10.1021/acs.jced.8b01196)

Legend:
[1] = refractive index (Na D-line) (dimensionless); settings: 101.33 kPa, Liquid, Standard Abbe refractometry
[2] = Liquid; for mass density: 101.33 kPa, Vibrating tube method; for vapor or sublimation pressure: Ebulliometric method (Recirculating still)
[3] = Boiling temperature at pressure P; settings: Liquid, Ebulliometric method (Recirculating still)

CCC(=O)C(C)=O [2,3-pentanedione]
Settings | Boiling temperature at pressure P [°C] | mass density [kg/m3] | refractive index | vapor or sublimation pressure [kPa]
[1], 292.15 K | – | – | 1.412 | –
[2], 292.15 K | – | 982 | – | –
[2], 382.52 K | – | – | – | 100
[2], 395.74 K | – | – | – | 150
[2], 405.62 K | – | – | – | 200
[3], 15.33 kPa | 58.52 | – | – | –
[3], 30.35 kPa | 74.90 | – | – | –
[3], 45.32 kPa | 85.6 | – | – | –
[3], 50.34 kPa | 88.2 | – | – | –
[3], 60.35 kPa | 93.66 | – | – | –
[3], 65.35 kPa | 96.10 | – | – | –
[3], 75.35 kPa | 100.40 | – | – | –
[3], 90.29 kPa | 106.11 | – | – | –
[3], 100.75 kPa | 109.37 | – | – | –
[3], 105.45 kPa | 111.8 | – | – | –
[3], 120.51 kPa | 115.89 | – | – | –
[3], 135.32 kPa | 118.22 | – | – | –
[3], 150.5 kPa | 122.59 | – | – | –
[3], 165.5 kPa | 125.8 | – | – | –
[3], 180.57 kPa | 128.56 | – | – | –
[3], 195.59 kPa | 129.97 | – | – | –
[3], 200.68 kPa | 132.47 | – | – | –

CC(C)=O [acetone]
Settings | Boiling temperature at pressure P [°C] | mass density [kg/m3] | refractive index | vapor or sublimation pressure [kPa]
[1], 293.15 K | – | – | 1.359 | –
[2], 298.15 K | – | 785 | – | –
[2], 328.89 K | – | – | – | 100
[2], 341.5 K | – | – | – | 150
[2], 350.57 K | – | – | – | 200
[3], 40.32 kPa | 31.47 | – | – | –
[3], 50.34 kPa | 37.0 | – | – | –
[3], 60.36 kPa | 41.64 | – | – | –
[3], 70.3 kPa | 45.74 | – | – | –
[3], 80.32 kPa | 49.40 | – | – | –
[3], 90.34 kPa | 52.70 | – | – | –
[3], 100.38 kPa | 55.74 | – | – | –
[3], 120.34 kPa | 61.20 | – | – | –
[3], 140.53 kPa | 65.91 | – | – | –
[3], 150.68 kPa | 68.4 | – | – | –
[3], 160.33 kPa | 70.12 | – | – | –
[3], 180.53 kPa | 73.92 | – | – | –
[3], 200.55 kPa | 77.42 | – | – | –
[3], 220.29 kPa | 80.67 | – | – | –

CC=O [ethanal]
Settings | Boiling temperature at pressure P [°C] | refractive index | vapor or sublimation pressure [kPa]
[1], 293.15 K | – | 1.337 | –
[2], 293.52 K | – | – | 100
[2], 304.31 K | – | – | 150
[2], 312.98 K | – | – | 200
[3], 100.68 kPa | 20.37 | – | –
[3], 105.38 kPa | 21.58 | – | –
[3], 115.48 kPa | 23.93 | – | –
[3], 135.54 kPa | 28.19 | – | –
[3], 150.37 kPa | 31.16 | – | –
[3], 165.44 kPa | 33.89 | – | –
[3], 180.92 kPa | 36.44 | – | –
[3], 195.74 kPa | 39 | – | –
[3], 200.79 kPa | 39.83 | – | –
[3], 210.95 kPa | 41.10 | – | –
[3], 225.32 kPa | 43.23 | – | –
[3], 240.4 kPa | 45.2 | – | –
